# From patent publication US4224343A, “Process and composition for decreasing blood serum prolactin levels” (Massachusetts Institute of Technology, priority 1979, dated 1980)
# “And” between values parts separate entries of the source, which are not always exact repeats. Identical values can stand only once. Like-named read-outs stand apart in the source and are kept apart here.
# How the values were obtained:
# [1] = tested on: brain dopamine release; assay: Accumulation of HVA in corpora striata of rats given haloperidol or probenecid after tyrosine (FIG. 2); conditions: for striatal HVA concentration: tyrosine 100 mg/kg or diluent, 20 min later haloperidol 2 mg/kg or probenecid 200 mg/kg i.p., sacrificed 70 min after second injection, corpora striata
# Protocol: Male, 150 to 200 g Sprague-Dawley rats (Charles River Breeding Laboratories, Wilmington, MA) were exposed to light (Vita-Lite, Duro-Test Co., North Bergen, N.J.) between 9 AM and 9 PM daily and allowed access to Big Red Rat Chow (Charles River Breeding Laboratories) and water ad limitum. Drugs were injected intraperitoneally at a volume of 2 ml/kg body weight. […] Control animals received the appropriate diluents. […] Brains were quickly removed, and the striata were dissected out (Glowinski and Iverson, 1966), frozen on dry ice, and subsequently assayed for HVA. Tyrosine was assayed in homogenates of the remaining brain (Waalkes and Udenfriend, 1957).
# [2] = target: T1, Striatal Tyrosine Hydroxylase (Rattus norvegicus, UniProt P04177); assay: Kms of striatal tyrosine hydroxylase after in vivo pretreatment; format: biochemical; conditions: for Km: striatal homogenate of treated rats
# T1 construct: 10,000 g supernatant of Triton X-100 homogenate of rat corpus striatum
# T1 sequence (P04177 whole entry): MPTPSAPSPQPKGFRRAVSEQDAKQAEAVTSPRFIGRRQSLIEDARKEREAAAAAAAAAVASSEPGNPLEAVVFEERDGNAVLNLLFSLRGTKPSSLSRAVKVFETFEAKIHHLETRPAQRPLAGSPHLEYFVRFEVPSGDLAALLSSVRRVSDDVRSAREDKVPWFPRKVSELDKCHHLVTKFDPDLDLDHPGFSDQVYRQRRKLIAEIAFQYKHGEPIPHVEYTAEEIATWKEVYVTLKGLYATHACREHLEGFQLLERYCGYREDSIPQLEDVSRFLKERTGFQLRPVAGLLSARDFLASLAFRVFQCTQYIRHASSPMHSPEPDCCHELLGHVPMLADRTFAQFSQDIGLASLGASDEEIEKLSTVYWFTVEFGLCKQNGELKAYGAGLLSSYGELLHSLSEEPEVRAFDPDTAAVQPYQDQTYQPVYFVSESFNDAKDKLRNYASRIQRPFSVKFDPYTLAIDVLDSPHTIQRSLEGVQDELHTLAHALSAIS
# Protocol: Corpora striata were homogenized in 10 volumes of 0.05 M Tris-acetate buffer (pH 6.0), containing 0.2 percent Triton X-100 (Harleco, Philadelphia, PA). The homogenates were centrifuged for 10 min. at 10,000 g, and the supernatant fluids were collected for assay (Coye, 1972). The assay medium contained, in a total volume of 110 μl: 50 μl of a supernatant fluid; 65 nmoles of DMPH4 (2-amino-4-hydroxy-6,7-dimethyl-5,6,7,8-tetrahydropteridine hydrochloride [synthetic cofactor obtained from Calbiochem, San Diego, CA]); 29 nanomoles of pyridoxal phosphate; 4 nanomoles of 2-mercaptoethanol; 240 units of catalase; 0.01 millimoles phosphate buffer (pH 6.2); and 10 μl of aromatic L-amino acid decarboxylase prepared from hog kidneys (Coyle, 1972). Samples were preincubated for 2 min. at 27° C.
# The assay was stopped by the addition of 0.5 ml of 10 percent trichloroacetic acid. The acidified medium was then shaken for 2 hours to recover the ^14 CO2, which was trapped by folded filter paper strips placed in 0.2 ml of NCS tissue solubilizer (Amersham/Searle, Arlington Heights, IL). The strips were then transferred to scintillation vials containing 10 ml of Aquasol (New England Nuclear, Boston, MA), and their radioactivity was counted.
# [3] = tested on: Norepinephrine synthesis and turnover in brain neurons; assay: Accumulation of brain MOPEG-SO4 after probenecid administration and pretreatment with tyrosine; conditions: for Brain MOPEG-SO4 Level / Brain Tyrosine Level: killed 60 min after second injection, whole brain, mean ± SEM; for effect on brain MOPEG-SO4: substance given alone, versus diluent; for effect on brain tyrosine levels: tyrosine 100 mg/kg i.p., probenecid 400 mg/kg, two-way analysis of variance
# Text: (§1) Male Sprague-Dawley rats (Charles River Breeding Laboratories, Wilmington, MA) weighing 150 g were housed in hanging cages (6-8 per cage), given ad libitum access to tap water and a 26% protein diet (Charles River Rat-Mouse-Hamster Maintenance Formula 24RF), and maintained under light (300 microwatts/cm^2; Vita-Lite, Duro-Test Corp., North Bergen, N.J.) between 8 AM and 8 PM daily. Rats used for diet experiments were fasted overnight and then allowed to consume the experimental diet starting at 10 AM. Diets of different compositions were prepared in agar gel ([…] of water) as described by Gibson et al., Biochem. Pharmacol., 26, 1137-1142 (1977). All amino acids and drugs were injected intraperitoneally.
# (§2) Norepinephrine synthesis and turnover in brain neurons were estimated by measuring the rate of accumulation of MOPEG-SO4 after probenecid administration or exposure to a cold environment. […] An aliquot of each homogenate (in 0.15 M ZnSO4) was first assayed for tyrosine by the method of Waalkes and Undenfriend, J. Lab. Clin. Med., 50, 733-736 (1957). An equal volume of 0.15 M barium hydroxide was then added to the remaining homogenate, which was rehomogenized (Polytron, Brinkman Instruments, N.Y.), centrifuged and assayed for MOPEG-SO4 by the method of Meek and Neff above.
# Tyrosine (Grand Island Biological Co., Long Island, N.Y.) and probenecid (Sigma Chemical Co., St. Louis, MO), which are poorly soluble in water, were dissolved in dilute NaOH; the solutions were then buffered to pH 7.4 with hydrochloric acid and brought to a known volume with saline. This yielded a fine suspension that was suitable for injection.
# In each of 3 experiments, groups of 4-6 rats were injected with either a
# dose of tyrosine (100 mg/kg, i.p.) known to accelerate brain dopa
# synthesis or its diluent and, 30 min. later, with probenecid (400 mg/kg,
# […].) or its diluent. Animals were killed 60 min. after the second
# injection, and their whole brains were analyzed for tyrosine and […]
# [4] = tested on: Norepinephrine synthesis and turnover in brain neurons; assay: Brain tyrosine and MOPEG-SO4 in rats exposed to cold (4° C.) after amino acid injection (FIG. 1)
# Text: as §1, §2
# In experiments on stress produced by exposure to cold, animals received the more soluble ethyl-ester form of tyrosine (J. T. Baker, Phillipsburg, N.J.), instead of tyrosine itself, to raise brain tyrosine levels. Data were analyzed by one-way or two-way analysis of variance.
# Placing the rats in a cold environment (4° C.) increases norepinephrine turnover; this accelerates the formation of both norepinephrine itself and its metabolite, MOPEG-SO4, in brain neurons. The rats were exposed to cold to determine whether treatments that changed brain tyrosine levels could influence the rate at which the brain accumulates MOPEG-SO4 in rats exposed to cold stress and not given probenecid (FIG. 1).
# The relationship shown in FIG. 1 was obtained as follows: Groups of rats were injected intraperitoneally with valine (200 mg/kg), an amino acid that competes with tyrosine for uptake into the brain (8), or with tyrosine (125 mg/kg of the ethyl ester) or saline; 30 min. later they were placed in single cages in a cold (4° C.) environment. After 1 hr., all animals were killed, and their whole brains were analyzed for tyrosine and MOPEG-SO4. Control animals were injected with saline and left at room temperature (22° C.), also in a single cages, for 90 min. Each point represents the tyrosine and MOPEG-SO4 levels present in a single brain. Data were pooled from several experiments. […] In FIG. 1, the symbols are as follows: closed circles, animals pretreated with valine; open circles, animals pretreated with saline; closed squares, animals pretreated with tyrosine.
# [5] = tested on: Serum Prolactin; assay: Serum prolactin by radioimmunoassay in reserpine-treated rats; format: in vivo, rat
# Protocol: Groups of 4 male rats received reserpine (2.5 mg/kg/day, divided into two equal doses each day) intraperitoneally for four days. On day 5, in the morning, no reserpine was administered, but instead half of the animals received tyrosine (200 mg/kg) or the vehicle (saline), and were killed two hours later. Sera were collected and assayed by radioimmunoassay for prolactin.
# [6] = pretreatment (tyrosine 100 mg/kg i.p. or diluent), 30 min later probenecid 400 mg/kg
# [7] = tyrosine 125 mg/kg of the ethyl ester i.p., cold (4° C.) 1 hr
# [8] = pretreatment tyrosine 100 mg/kg i.p., 30 min later diluent
compound,measurement,setting,value
"O=C(CCCN1CCC(O)(c2ccc(Cl)cc2)CC1)c1ccc(F)cc1 [Haloperidol, haloperidol]",striatal HVA concentration,[1],2.00 ± 0.10 µg/g
same,Km,"[2]; DMPH4 concentrations 0.1 to 0.5 mM, read-out: Km for DMPH4",130 ± 10 µM
same,Km,"[2]; tyrosine concentrations 0.125-1.0 mM, read-out: Km for tyrosine",48.1 ± 1.9 µM
"CCCN(CCC)S(=O)(=O)c1ccc(C(=O)O)cc1 [Probenecid, probenecid, reference compound]",striatal HVA concentration,[1],1.30 ± 0.10 µg/g
same,Brain MOPEG-SO4 Level,[3]; [6],175 ng/g and 175 ± 6 ng/g
same,effect on brain MOPEG-SO4,[3],significantly raised
same,effect on brain tyrosine levels,[3],failed to modify
"N[C@@H](Cc1ccc(O)cc1)C(=O)O [Tyrosine, tyrosine]",potentiation of the accumulation of HVA in striata of haloperidol-treated rats,[1]; tyrosine 100 mg/kg 20 min before haloperidol 2 mg/kg,59%
same,effect on HVA levels in animals given probenecid,[1]; tyrosine 100 mg/kg 20 min before probenecid 200 mg/kg,failed
same,brain tyrosine levels,"[4]; i.p. injection (tyrosine 125 mg/kg of the ethyl ester; valine 200 mg/kg) 30 min before 1 hr in cold (4° C.), whole brain",24.6 µg/g
same,brain MOPEG-SO4 levels,"[4]; tyrosine 125 mg/kg of the ethyl ester i.p. 30 min before 1 hr in cold (4° C.), whole brain",193 ng/g
same,rise in brain MOPEG-SO4 versus saline-injected animals,[4]; [7],70%
same,rise in brain tyrosine levels versus saline-injected animals,[4]; [7],about 80%
same,Brain MOPEG-SO4 Level,[3]; [6],203 ng/g and 203 ± 8 ng/g
same,Brain Tyrosine Level,[3]; [6],24.7 ± 1.3 µg/g
same,Brain MOPEG-SO4 Level,[3]; [8],127 ± 2 ng/g
same,Brain Tyrosine Level,[3]; [8],23.3 ± 1.5 µg/g
same,effect on brain MOPEG-SO4,[3],no effect
same,effect of tyrosine pretreatment on the probenecid-induced rise in MOPEG-SO4,[3]; tyrosine 100 mg/kg i.p. 30 min before probenecid 400 mg/kg,significantly enhanced
same,effect on brain tyrosine levels,[3],significantly raised
same,Serum Prolactin,"[5]; male rats, reserpine […] i.p. for four days, day 5 tyrosine 200 mg/kg, killed two hours later, mean ± standard error",44 ± 2 ng/mL
same,effect on serum prolactin levels,"[5]; reserpine-pretreated rats, tyrosine 200 mg/kg",lowers serum prolactin levels
same,effect of prior administration on the Kms of tyrosine hydroxylase for tyrosine or DMPH4 in vitro,[2]; tyrosine 100 mg/kg in vivo,failed to affect
"CC(C)[C@H](N)C(=O)O [valine, reference compound]",effect on brain tyrosine or MOPEG-SO4 levels,"[4]; valine 200 mg/kg i.p., cold (4° C.) 1 hr","failed, in this study, to cause significant alterations"
